Measured values as given in ChEMBL document CHEMBL5579898, “Between Theory and Practice: Computational/Experimental Integrated Approaches to Understand the Solubility and Lipophilicity of PROTACs” (J Med Chem, 2024).

Assays:
Format in all cases: physicochemical
[1] = Kinetic solubility of the compound incubated for 60 mins under shaking condition by UHPLC-MS analysis; details: 1 h
[2] = Distribution coefficient, logD of compound in n-Octanol/PBS at pH 7.4 incubated for 30 mins under shaking condition by UV-Vis spectroscopic analysis; details: for logD at 0.5 h: n-octanol/PBS, pH 7.4; for logD: octanol/water, pH 7.4, 0.5 h, BLD = below limit of detection
[3] = Distribution coefficient, logD of compound in n-Octanol/PBS at pH 7.4 incubated for 30 mins under shaking condition by UHPLC-MS analysis
[4] = Kinetic solubility of the compound incubated for 60 mins under shaking condition by UV-Vis spectroscopic analysis; details: 1 h

Row | SMILES | log(Kinetic_solubility) [1] | logD at 0.5 h [2] | logD at 0.5 h [3] | log(Kinetic_solubility) [4] | log(Kinetic_solubility) ([1]; BLD = below limit of detection) | logD [2] | log(Kinetic_solubility) ([4]; BLD = below limit of detection)
1 | Cc1ncsc1-c1ccc(CNC(=O)[C@@H]2C[C@@H](O)CN2C(=O)[C@@H](NC(=O)COCCOCCOCCOCCOCCOCC(=O)N[C@H](C(=O)N2C[C@H](O)C[C@H]2C(=O)NCc2ccc(-c3scnc3C)cc2)C(C)(C)C)C(C)(C)C)cc1 | -3.24 | 3.09 | 3 | -3.25 |  |  | 
2 | O=C(CCCCCCCCCCC(=O)N1CCN(C(=O)c2cc(Cc3n[nH]c(=O)c4ccccc34)ccc2F)CC1)NCCNc1cccc2c1C(=O)N(C1CCC(=O)NC1=O)C2=O (stereo not given) | -6.13 | 3.48 | 3.64 |  |  |  | Bld
3 | Cc1ncsc1-c1ccc([C@H](C)NC(=O)[C@@H]2C[C@@H](O)CN2C(=O)[C@@H](NC(=O)COCCOCCNC(=O)COc2c(-c3csc(N4CCOCC4)n3)ccc(F)c2F)C(C)(C)C)cc1 | -4.52 | 3.5 | 3.94 | -4.47 |  |  | 
4 | Cc1ncsc1-c1ccc([C@H](C)NC(=O)[C@@H]2C[C@@H](O)CN2C(=O)[C@@H](NC(=O)CCCCn2cc(COc3c(-c4csc(N5CCOCC5)n4)ccc(F)c3F)nn2)C(C)(C)C)cc1 | -5.14 |  | 4.99 | -5 |  | Bld | 
5 | Cc1ncsc1-c1ccc([C@H](C)NC(=O)[C@@H]2C[C@@H](O)CN2C(=O)[C@@H](NC(=O)CCCCn2cc(CCCC(=O)N3CCN(C(=O)c4cc(Cc5n[nH]c(=O)c6ccccc56)ccc4F)CC3)nn2)C(C)(C)C)cc1 | -4.34 | 2.89 | 3 | -4.37 |  |  | 
6 | COc1ccc2c(c1)c(CC(=O)NCCCCCCC(=O)N[C@H](C(=O)N1C[C@H](O)C[C@H]1C(=O)N[C@@H](C)c1ccc(-c3scnc3C)cc1)C(C)(C)C)c(C)n2C(=O)c1ccc(Cl)cc1 | -7.34 |  | 5.6 |  |  | Bld | Bld
7 | CC(=O)c1c(C)c2cnc(Nc3ccc(N4CCN(CCOCCOCCOCCNC(=O)COc5cccc6c5C(=O)N(C5CCC(=O)NC5=O)C6=O)CC4)cn3)nc2n(C2CCCC2)c1=O (stereo not given) | -5.05 | 2.17 | 2.29 | -4.72 |  |  | 
8 | COc1ccc2c(c1)c(CC(=O)N1CCN(CC(=O)N[C@H](C(=O)N3C[C@H](O)C[C@H]3C(=O)N[C@@H](C)c3ccc(-c4scnc4C)cc3)C(C)(C)C)CC1)c(C)n2C(=O)c1ccc(Cl)cc1 | -6.62 |  | 5.3 |  |  | Bld | Bld
9 | Cc1ncsc1-c1ccc([C@H](C)NC(=O)[C@@H]2C[C@H](O)CN2C(=O)[C@@H](NC(=O)COCCOCCOCC(=O)N[C@H](C(=O)N2C[C@@H](O)C[C@H]2C(=O)N[C@@H](C)c2ccc(-c3scnc3C)cc2)C(C)(C)C)C(C)(C)C)cc1 | -4.66 | 3.74 | 3.5 | -4.62 |  |  | 
10 | Cc1ncsc1-c1ccc([C@H](C)NC(=O)[C@@H]2C[C@@H](O)CN2C(=O)[C@@H](NC(=O)CCCCn2cc(CN3CCN(C(=O)C[C@@H]4N=C(c5ccc(Cl)cc5)c5c(sc(C)c5C)-n5c(C)nnc54)CC3)nn2)C(C)(C)C)cc1 | -4.68 | 3.81 | 4.12 | -4.54 |  |  | 
11 | Cc1ncsc1-c1ccc([C@H](C)NC(=O)[C@@H]2C[C@@H](O)CN2C(=O)[C@@H](NC(=O)CN2CCN(C(=O)C[C@@H]3N=C(c4ccc(Cl)cc4)c4c(sc(C)c4C)-n4c(C)nnc43)CC2)C(C)(C)C)cc1 | -4.9 |  | 4.56 | -4.79 |  | Bld | 
12 | Cc1ncsc1-c1ccc([C@H](C)NC(=O)[C@@H]2C[C@@H](O)CN2C(=O)[C@@H](NC(=O)COCCOCCOCC(=O)N[C@H](C(=O)N2C[C@H](O)C[C@H]2C(=O)N[C@@H](C)c2ccc(-c3scnc3C)cc2)C(C)(C)C)C(C)(C)C)cc1 | -4.23 | 3.5 | 3.9 | -4.21 |  |  | 
13 | O=C(COc1c(-c2csc(N3CCOCC3)n2)ccc(F)c1F)NCCOCCOCCOCCOCCNc1cccc2c1C(=O)N(C1CCC(=O)NC1=O)C2=O (stereo not given) | -4.28 | 2.82 | 2.82 | -4.28 |  |  | 
14 | O=C(COc1c(-c2csc(N3CCOCC3)n2)ccc(F)c1F)NCCCCCCCCCCNc1ccc2nnn(C3CCC(=O)NC3=O)c(=O)c2c1 (stereo not given) |  |  | 4.93 |  | Bld | Bld | Bld
15 | Cc1ncsc1-c1ccc(CNC(=O)[C@@H]2C[C@@H](O)CN2C(=O)[C@@H](NC(=O)COCCOCCOCC(=O)N[C@H](C(=O)N2C[C@H](O)C[C@H]2C(=O)NCc2ccc(-c3scnc3C)cc2)C(C)(C)C)C(C)(C)C)cc1 | -3.98 | 3.7 | 3.19 | -3.93 |  |  | 
16 | Cc1ncsc1-c1ccc([C@H](C)NC(=O)[C@@H]2C[C@@H](O)CN2C(=O)[C@@H](NC(=O)CCCCCCCCCCC(=O)N2CCN(C(=O)c3cc(Cc4n[nH]c(=O)c5ccccc45)ccc3F)CC2)C(C)(C)C)cc1 | -7.21 |  | 5 |  |  | Bld | Bld
17 | O=C1CCC(N2C(=O)c3cccc(NCCOCCOCC(=O)N4CCN(C(=O)c5cc(Cc6n[nH]c(=O)c7ccccc67)ccc5F)CC4)c3C2=O)C(=O)N1 (stereo not given) | -4.19 | 0.867 | 1.27 | -4.16 |  |  | 

More lines, now with the values ahead:

Row | log(Kinetic_solubility) [1] | logD at 0.5 h [2] | logD at 0.5 h [3] | log(Kinetic_solubility) [4] | log(Kinetic_solubility) ([1]; BLD = below limit of detection) | logD [2] | log(Kinetic_solubility) ([4]; BLD = below limit of detection) | SMILES
18 |  |  | 5.5 |  | Bld | Bld | Bld | Cc1ncsc1-c1ccc([C@H](CC(=O)N2CCC(N3CCC(C#Cc4ccc(C(=O)N[C@H]5C(C)(C)[C@H](Oc6ccc(C#N)c(Cl)c6)C5(C)C)cc4)CC3)CC2)NC(=O)[C@@H]2C[C@@H](O)CN2C(=O)[C@@H](NC(=O)C2(F)CC2)C(C)(C)C)cc1
19 | -5.14 |  | 4.82 | -5 |  | Bld |  | Cc1ncsc1-c1ccc([C@H](CC(=O)NCCCCCCNC(=O)COc2c(-c3csc(N4CCOCC4)n3)ccc(F)c2F)NC(=O)[C@@H]2C[C@@H](O)CN2C(=O)[C@@H](NC(=O)C2(F)CC2)C(C)(C)C)cc1
20 | -6.1 |  | 5.47 |  |  | Bld | Bld | COc1ccc2c(c1)c(CC(=O)NCCCCC(=O)N[C@H](C(=O)N1C[C@H](O)C[C@H]1C(=O)N[C@@H](C)c1ccc(-c3scnc3C)cc1)C(C)(C)C)c(C)n2C(=O)c1ccc(Cl)cc1
21 | -5.7 |  | 4.8 | -5.22 |  | Bld |  | COc1ccc2c(c1)c(CC(=O)NCCN1CCN(C(=O)CCC(=O)N[C@H](C(=O)N3C[C@H](O)C[C@H]3C(=O)N[C@@H](C)c3ccc(-c4scnc4C)cc3)C(C)(C)C)CC1)c(C)n2C(=O)c1ccc(Cl)cc1
22 | -5.22 | 4.1 | 4.33 | -5.11 |  |  |  | COc1ccc2c(c1)c(CC(=O)N1CCN(CCOCCOCC(=O)N[C@H](C(=O)N3C[C@H](O)C[C@H]3C(=O)N[C@@H](C)c3ccc(-c4scnc4C)cc3)C(C)(C)C)CC1)c(C)n2C(=O)c1ccc(Cl)cc1
23 | -4.62 |  | 5.1 | -4.59 |  | Bld |  | COc1ccc2c(c1)c(CC(=O)NCCN1CCN(CCOCCOCC(=O)N[C@H](C(=O)N3C[C@H](O)C[C@H]3C(=O)N[C@@H](C)c3ccc(-c4scnc4C)cc3)C(C)(C)C)CC1)c(C)n2C(=O)c1ccc(Cl)cc1
24 | -5.05 |  | 5.02 | -4.89 |  | Bld |  | Cc1ccc(-c2csc(N3CCOCC3)n2)c(OCC(=O)NCCCCC(=O)N[C@H](C(=O)N2C[C@H](O)C[C@H]2C(=O)N[C@@H](C)c2ccc(-c3scnc3C)cc2)C(C)(C)C)c1C
25 | -5.22 |  | 5.2 | -4.82 |  | Bld |  | Cc1ncsc1-c1ccc([C@H](C)NC(=O)[C@@H]2C[C@@H](O)CN2C(=O)[C@@H](NC(=O)CNCCOCCOc2c(-c3csc(N4CCOCC4)n3)ccc(F)c2F)C(C)(C)C)cc1
26 |  |  | 4.9 |  | Bld | Bld | Bld | Cc1ncsc1-c1ccc([C@H](CC(=O)NCCCCCCCCCCC(=O)N[C@H]2C(C)(C)[C@H](Oc3ccc(C#N)c(Cl)c3)C2(C)C)NC(=O)[C@@H]2C[C@@H](O)CN2C(=O)[C@@H](NC(=O)C2(F)CC2)C(C)(C)C)cc1
27 | -3.06 | 2.45 | 2.52 | -3.07 |  |  |  | Cn1c(=O)n(C)c2cc(CNCCOCCOCCNCC3CCN(c4ccc(C(=O)N[C@H]5CC[C@H](Oc6ccc(C#N)c(Cl)c6)CC5)nn4)CC3)ccc21
28 | -4.14 |  | 4.43 | -4.28 |  | Bld |  | Cn1c(=O)n(C)c2cc(CNCCCNCC3CCN(c4ccc(C(=O)N[C@H]5CC[C@H](Oc6ccc(C#N)c(Cl)c6)CC5)nn4)CC3)ccc21
29 |  | 3.7 | 4 |  | Bld |  | Bld | COc1cc(C(=O)NCCCCCCNC(=O)COc2c(-c3csc(N4CCOCC4)n3)ccc(F)c2F)ccc1NC(=O)[C@@H]1N[C@@H](CC(C)(C)C)[C@](C#N)(c2ccc(Cl)cc2F)[C@H]1c1cccc(Cl)c1F
30 | -3.64 | 3.25 | 3.7 | -3.69 |  |  |  | Cn1c(=O)n(C)c2cc(CNCCOCCNCC3CCN(c4ccc(C(=O)N[C@H]5CC[C@H](Oc6ccc(C#N)c(Cl)c6)CC5)nn4)CC3)ccc21
